Legend:
[1] = molecular target: T1, Snk(h) (Homo sapiens, UniProt Q9NYY3); experiment: Eurofins kinase panel; format: biochemical; conditions: read-out: Inhibition rate (%)
T1 construct: purchased Eurofins (KinaseProfiler)

[2] = molecular target: T2, ChaK1(h) (Homo sapiens, UniProt Q96QT4); experiment: Eurofins kinase panel; format: biochemical; conditions: read-out: Inhibition rate (%)
T2 construct: purchased Eurofins (KinaseProfiler)

[3] = test system: UMUC14; experiment: Cell proliferation assay; format: cell-based, human; conditions: Homo sapiens, UMUC14; 72 h, mean ± SD
Method: (§1) The cancer cell lines indicated in Figure 3 were seeded in 96-well plates at a low density in growth medium. The next day, appropriate controls or the designated concentrations of the compounds were added to each well, and the cells were incubated for 72 h. HUVECs (passage 3) were seeded in 96-well plates in growth medium overnight and transferred to serum-free medium for 24 h. The following day, appropriate controls or the designated concentrations of the compounds were added to each well, and 100 ng/mL growth factor (bFGF or VEGF) was added to the indicated wells. The cells were incubated for 48 h. Finally, cell proliferation was determined using a sulforhodamine B (SRB) assay or a cell counting kit-8 (CCK-8) assay. […] IC50 values for proliferation curves were calculated using a 4-parameter logistic nonlinear regression model with SoftMax Pro Software (Molecular Devices, San Jose, USA).

[4] = test system: SUM52PE; experiment: Cell proliferation assay; format: cell-based, human; conditions: Homo sapiens, SUM52PE; 72 h, mean ± SD
Method: as §1

[5] = test system: NCI-H716; experiment: Cell proliferation assay; format: cell-based, human; conditions: Homo sapiens, NCI-H716; 72 h, mean ± SD
Method: as §1

[6] = test system: NCI-H1581; experiment: Cell proliferation assay; format: cell-based, human; conditions: Homo sapiens, NCI-H1581; 72 h, mean ± SD
Method: as §1

[7] = test system: HUH7; experiment: Cell proliferation assay; format: cell-based, human; conditions: Homo sapiens, Huh-7; 72 h, mean ± SD
Method: as §1

[8] = test system: RT112; experiment: Cell proliferation assay; format: cell-based, human; conditions: Homo sapiens, RT-112; 72 h, mean ± SD
Method: as §1

[9] = test system: SNU16; experiment: Cell proliferation assay; format: cell-based, human; conditions: Homo sapiens, SNU-16; 72 h, mean ± SD
Method: as §1

[10] = test system: OPM2; experiment: Cell proliferation assay; format: cell-based, human; conditions: Homo sapiens, OPM-2; 72 h, mean ± SD
Method: as §1

[11] = test system: KATOIII; experiment: Cell proliferation assay; format: cell-based, human; conditions: Homo sapiens, KATO III; 72 h, mean ± SD
Method: as §1

[12] = test system: KG-1; experiment: Cell proliferation assay; format: cell-based, human; conditions: Homo sapiens, KG-1; 72 h, mean ± SD
Method: as §1

[13] = test system: bFGF-induced primary HUVECs; experiment: bFGF-induced HUVEC proliferation (CCK-8); format: cell-based, human
[14] = molecular target: T3, AMPKα2(h) (Homo sapiens, UniProt P54646); experiment: Eurofins kinase panel; format: biochemical; conditions: read-out: Inhibition rate (%)
T3 construct: purchased Eurofins (KinaseProfiler)
T3 sequence (P54646 whole entry): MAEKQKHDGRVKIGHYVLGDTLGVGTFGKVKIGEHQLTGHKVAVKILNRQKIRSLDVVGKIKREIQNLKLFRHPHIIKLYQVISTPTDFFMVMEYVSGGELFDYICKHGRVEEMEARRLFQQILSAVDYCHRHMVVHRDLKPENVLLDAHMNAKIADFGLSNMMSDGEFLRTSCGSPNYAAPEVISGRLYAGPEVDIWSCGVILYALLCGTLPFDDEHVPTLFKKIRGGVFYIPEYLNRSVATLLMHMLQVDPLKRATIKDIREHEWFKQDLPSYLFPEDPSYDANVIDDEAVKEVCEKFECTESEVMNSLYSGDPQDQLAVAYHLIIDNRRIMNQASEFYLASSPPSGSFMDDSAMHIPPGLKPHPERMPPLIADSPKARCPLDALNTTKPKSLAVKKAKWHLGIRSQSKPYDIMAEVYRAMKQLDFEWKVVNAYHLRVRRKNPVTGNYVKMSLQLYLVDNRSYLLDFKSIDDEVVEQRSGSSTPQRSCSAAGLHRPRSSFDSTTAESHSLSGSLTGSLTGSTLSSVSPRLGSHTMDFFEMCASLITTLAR
T3 sequence (Q9Y478 whole entry partner): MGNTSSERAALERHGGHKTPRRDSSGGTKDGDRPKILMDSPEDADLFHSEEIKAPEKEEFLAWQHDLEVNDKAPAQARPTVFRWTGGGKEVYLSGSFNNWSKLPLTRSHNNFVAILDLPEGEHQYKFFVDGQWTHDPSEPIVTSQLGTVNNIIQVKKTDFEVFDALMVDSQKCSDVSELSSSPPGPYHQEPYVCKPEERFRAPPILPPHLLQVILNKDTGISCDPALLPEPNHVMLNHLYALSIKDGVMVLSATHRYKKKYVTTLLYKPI
T3 sequence (P54619 whole entry partner): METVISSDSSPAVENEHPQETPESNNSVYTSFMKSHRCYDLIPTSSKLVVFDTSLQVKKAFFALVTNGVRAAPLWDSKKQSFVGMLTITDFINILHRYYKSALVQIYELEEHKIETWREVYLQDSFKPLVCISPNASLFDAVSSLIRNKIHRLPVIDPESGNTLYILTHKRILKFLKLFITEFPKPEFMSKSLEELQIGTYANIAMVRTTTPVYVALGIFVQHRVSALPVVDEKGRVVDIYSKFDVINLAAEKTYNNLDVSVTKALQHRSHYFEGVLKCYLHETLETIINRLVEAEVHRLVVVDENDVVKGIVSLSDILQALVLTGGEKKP

[15] = test system: 372 human recombinant kinases; experiment: Eurofins kinase panel, overall selectivity; format: biochemical
Method: Active FGFR1–4, VEGFR1, KDR, VEGFR3, PDGFRα and PDGFRβ proteins were purchased from Eurofins (Fremont, United States), and kinase activity was assessed using ELISA, as previously reported. The broader kinase selectivity profile of 3D185 (0.01, 0.1, and 1 μM) was determined by Eurofins by screening the compound against 372 human recombinant kinases. Increasing concentrations of ATP were diluted for the kinase reaction in the ATP competition assay. CSF-1R kinase activity was analyzed using the Z’-LYTE™ Kinase Assay Kit (Thermo Fisher, United States). The assay formats are described in the SelectScreen Kinase Profiling Service Zlyte protocol. IC50 values were calculated by dose-response curve fitting using Prism (Graph Pad).

[16] = test system: CSF-1-differentiated macrophages induced RT112 cell migration; experiment: Tumor cell migration assay (Transwell co-culture); format: cell-based, human; conditions: 25 nM, 24 h
[17] = molecular target: T4, CDK9/cyclin T1(h) (Homo sapiens, UniProt P50750); experiment: Eurofins kinase panel; format: biochemical; conditions: read-out: Inhibition rate (%)
T4 construct: purchased Eurofins (KinaseProfiler)
T4 sequence (P50750 whole entry): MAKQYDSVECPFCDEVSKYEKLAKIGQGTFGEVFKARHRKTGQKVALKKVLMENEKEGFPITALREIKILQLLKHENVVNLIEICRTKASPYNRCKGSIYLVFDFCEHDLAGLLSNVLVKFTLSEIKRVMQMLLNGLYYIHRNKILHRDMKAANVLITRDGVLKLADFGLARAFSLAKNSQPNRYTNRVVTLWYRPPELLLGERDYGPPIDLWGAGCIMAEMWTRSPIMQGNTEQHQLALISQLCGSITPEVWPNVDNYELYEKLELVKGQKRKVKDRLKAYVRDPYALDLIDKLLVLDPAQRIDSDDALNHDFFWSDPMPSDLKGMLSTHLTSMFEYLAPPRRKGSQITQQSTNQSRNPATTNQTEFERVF
T4 sequence (O60563 whole entry partner): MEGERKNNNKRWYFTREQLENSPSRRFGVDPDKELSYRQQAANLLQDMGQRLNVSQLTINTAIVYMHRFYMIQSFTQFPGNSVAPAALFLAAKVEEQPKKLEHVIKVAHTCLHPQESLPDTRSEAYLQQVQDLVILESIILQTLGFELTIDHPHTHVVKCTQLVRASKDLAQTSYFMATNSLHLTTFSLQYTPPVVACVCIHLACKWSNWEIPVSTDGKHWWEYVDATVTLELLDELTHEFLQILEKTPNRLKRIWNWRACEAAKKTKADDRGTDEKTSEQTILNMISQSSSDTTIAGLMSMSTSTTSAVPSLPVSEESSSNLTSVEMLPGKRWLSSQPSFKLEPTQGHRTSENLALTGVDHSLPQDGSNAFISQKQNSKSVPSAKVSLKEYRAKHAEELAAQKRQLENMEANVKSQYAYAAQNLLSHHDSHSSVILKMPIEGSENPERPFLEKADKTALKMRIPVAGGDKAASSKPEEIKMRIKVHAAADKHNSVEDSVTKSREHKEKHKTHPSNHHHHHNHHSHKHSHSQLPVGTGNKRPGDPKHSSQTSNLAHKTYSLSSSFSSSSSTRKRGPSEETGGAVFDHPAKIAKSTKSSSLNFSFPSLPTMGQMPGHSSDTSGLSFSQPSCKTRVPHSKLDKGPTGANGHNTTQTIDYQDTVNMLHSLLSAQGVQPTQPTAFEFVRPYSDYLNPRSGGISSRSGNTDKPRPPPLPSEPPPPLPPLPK

[18] = molecular target: T5, SNRK(h) (Homo sapiens, UniProt Q9NRH2); experiment: Eurofins kinase panel; format: biochemical; conditions: read-out: Inhibition rate (%)
T5 construct: purchased Eurofins (KinaseProfiler)
T5 sequence (Q9NRH2 1-765): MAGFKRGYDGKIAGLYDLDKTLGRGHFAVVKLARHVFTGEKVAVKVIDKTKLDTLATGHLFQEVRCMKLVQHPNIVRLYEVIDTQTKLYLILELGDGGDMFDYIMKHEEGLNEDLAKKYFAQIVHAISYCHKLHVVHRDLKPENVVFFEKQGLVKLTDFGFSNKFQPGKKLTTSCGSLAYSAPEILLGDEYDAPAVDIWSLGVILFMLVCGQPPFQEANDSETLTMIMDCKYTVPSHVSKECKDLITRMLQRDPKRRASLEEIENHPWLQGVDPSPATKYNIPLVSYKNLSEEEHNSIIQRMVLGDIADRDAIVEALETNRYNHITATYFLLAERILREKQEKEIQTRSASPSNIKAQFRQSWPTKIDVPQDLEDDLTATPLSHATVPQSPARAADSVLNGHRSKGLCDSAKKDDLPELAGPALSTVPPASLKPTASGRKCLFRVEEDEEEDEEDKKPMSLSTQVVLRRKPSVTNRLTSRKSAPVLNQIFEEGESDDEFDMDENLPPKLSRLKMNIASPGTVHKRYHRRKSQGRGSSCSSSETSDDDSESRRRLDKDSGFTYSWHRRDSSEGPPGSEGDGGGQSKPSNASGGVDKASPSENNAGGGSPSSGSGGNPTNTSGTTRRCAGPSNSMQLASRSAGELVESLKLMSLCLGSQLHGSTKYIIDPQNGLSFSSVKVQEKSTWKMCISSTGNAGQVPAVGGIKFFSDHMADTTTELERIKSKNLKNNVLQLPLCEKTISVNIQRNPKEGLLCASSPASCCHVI

T1 sequence (Q9NYY3 whole entry): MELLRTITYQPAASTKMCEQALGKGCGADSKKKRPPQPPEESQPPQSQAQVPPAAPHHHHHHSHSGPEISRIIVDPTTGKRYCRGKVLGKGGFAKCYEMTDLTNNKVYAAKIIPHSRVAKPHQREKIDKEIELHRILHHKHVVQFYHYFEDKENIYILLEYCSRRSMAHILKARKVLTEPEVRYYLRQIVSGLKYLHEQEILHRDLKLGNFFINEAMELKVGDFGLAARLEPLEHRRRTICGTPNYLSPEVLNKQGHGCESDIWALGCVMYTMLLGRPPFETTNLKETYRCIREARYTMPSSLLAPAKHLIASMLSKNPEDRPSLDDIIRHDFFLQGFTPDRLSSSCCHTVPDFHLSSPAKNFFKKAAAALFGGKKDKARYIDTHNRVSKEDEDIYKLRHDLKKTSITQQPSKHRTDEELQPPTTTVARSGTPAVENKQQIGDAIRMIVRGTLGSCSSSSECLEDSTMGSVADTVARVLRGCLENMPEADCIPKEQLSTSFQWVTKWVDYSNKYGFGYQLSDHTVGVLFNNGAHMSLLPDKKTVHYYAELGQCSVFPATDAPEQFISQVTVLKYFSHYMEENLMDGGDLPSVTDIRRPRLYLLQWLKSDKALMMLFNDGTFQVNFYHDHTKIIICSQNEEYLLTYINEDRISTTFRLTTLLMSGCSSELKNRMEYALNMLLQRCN
T2 sequence (Q96QT4 whole entry): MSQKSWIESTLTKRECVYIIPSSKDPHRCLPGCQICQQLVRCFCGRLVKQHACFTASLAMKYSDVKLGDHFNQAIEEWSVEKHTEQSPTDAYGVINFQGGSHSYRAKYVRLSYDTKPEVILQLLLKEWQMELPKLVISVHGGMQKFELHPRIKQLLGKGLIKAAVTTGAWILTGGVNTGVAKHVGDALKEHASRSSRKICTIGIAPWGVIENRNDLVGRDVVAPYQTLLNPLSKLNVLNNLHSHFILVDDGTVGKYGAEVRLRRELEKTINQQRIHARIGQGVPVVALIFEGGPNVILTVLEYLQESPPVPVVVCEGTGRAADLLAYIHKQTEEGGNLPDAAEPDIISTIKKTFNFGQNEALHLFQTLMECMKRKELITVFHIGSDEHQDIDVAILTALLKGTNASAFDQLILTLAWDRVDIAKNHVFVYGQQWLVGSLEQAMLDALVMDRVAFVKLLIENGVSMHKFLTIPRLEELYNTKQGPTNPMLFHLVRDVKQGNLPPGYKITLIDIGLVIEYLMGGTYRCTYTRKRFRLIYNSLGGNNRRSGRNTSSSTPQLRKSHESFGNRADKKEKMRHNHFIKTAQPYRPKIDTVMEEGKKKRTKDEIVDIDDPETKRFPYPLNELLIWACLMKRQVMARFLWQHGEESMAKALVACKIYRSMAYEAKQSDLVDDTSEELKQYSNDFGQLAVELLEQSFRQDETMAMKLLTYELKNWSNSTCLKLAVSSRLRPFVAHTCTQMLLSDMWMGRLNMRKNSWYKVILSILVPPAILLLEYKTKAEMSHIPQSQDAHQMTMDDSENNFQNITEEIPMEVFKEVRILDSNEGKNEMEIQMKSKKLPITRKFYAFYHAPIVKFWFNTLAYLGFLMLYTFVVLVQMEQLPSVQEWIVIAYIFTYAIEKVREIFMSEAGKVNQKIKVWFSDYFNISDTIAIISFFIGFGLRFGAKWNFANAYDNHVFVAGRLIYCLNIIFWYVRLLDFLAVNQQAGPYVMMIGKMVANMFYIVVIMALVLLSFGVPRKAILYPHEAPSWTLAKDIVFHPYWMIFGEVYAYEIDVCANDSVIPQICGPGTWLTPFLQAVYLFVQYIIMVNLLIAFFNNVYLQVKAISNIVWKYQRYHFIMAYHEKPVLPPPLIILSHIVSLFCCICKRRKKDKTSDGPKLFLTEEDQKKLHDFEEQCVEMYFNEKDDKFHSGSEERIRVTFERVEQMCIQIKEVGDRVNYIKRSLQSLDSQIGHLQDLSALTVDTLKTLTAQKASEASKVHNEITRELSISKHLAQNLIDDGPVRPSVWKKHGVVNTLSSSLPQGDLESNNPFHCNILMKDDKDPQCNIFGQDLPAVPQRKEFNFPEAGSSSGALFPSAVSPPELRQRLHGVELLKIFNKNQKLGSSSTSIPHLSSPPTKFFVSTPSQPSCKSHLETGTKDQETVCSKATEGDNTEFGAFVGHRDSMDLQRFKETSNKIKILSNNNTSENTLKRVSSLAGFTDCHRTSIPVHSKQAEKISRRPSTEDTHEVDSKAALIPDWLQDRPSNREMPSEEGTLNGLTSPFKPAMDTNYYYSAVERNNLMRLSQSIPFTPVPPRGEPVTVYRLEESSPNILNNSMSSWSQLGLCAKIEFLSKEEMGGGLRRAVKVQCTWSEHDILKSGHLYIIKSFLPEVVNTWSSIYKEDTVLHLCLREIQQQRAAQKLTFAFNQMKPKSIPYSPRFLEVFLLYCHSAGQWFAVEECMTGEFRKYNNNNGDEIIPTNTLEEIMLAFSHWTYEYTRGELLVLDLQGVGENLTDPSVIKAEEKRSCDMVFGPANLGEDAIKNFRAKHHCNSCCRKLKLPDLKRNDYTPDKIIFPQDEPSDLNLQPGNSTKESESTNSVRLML

For `COc1cc(OC)c(Cl)c(-c2ccc3c(NC(=O)c4ccc(N5CCNC(C)(C)C5)cc4)n[nH]c3n2)c1Cl` [3D185], the inhibition at 0.01 µM ([1]; 10 nM) was 0%, the inhibition at 0.1 µM ([1]; 100 nM) was -2% and the inhibition at 1 µM ([1]; 1000 nM) was 10%. The inhibition at 0.01 µM ([2]; 10 nM) was 2%, the inhibition at 0.1 µM ([2]; 100 nM) was -10% and the inhibition at 1 µM ([2]; 1000 nM) was 8%. For the same molecule, the IC50 [3] was 0.0309 ± 0.0053 µM, the IC50 [4] was 0.002 µM and the IC50 [5] was 0.003 ± 0.0004 µM. The IC50 [6] was 0.0173 ± 0.0057 µM, the IC50 [7] was 0.0498 ± 0.0015 µM and the IC50 [8] was 0.0368 ± 0.0068 µM. For the same molecule, the IC50 [9] was 0.0009 ± 0.0001 µM, the IC50 [10] was 0.0192 ± 0.0043 µM and the IC50 [11] was 0.0113 ± 0.0002 µM. For the same molecule, the IC50 [12] was 0.002 ± 0.0004 µM, the IC50 ([13]; Homo sapiens, HUVEC, bFGF 100 ng/mL, 48 h) was 0.0005 µM and the “fold more potent on bFGF-induced than VEGF-induced HUVEC proliferation” value ([13]; cellular assays) was “greater than 176 fold”. For the same molecule, the inhibition at 0.01 µM ([14]; 10 nM) was -4%, the inhibition at 0.1 µM ([14]; 100 nM) was -8% and the inhibition at 1 µM ([14]; 1000 nM) was 9%. For the same molecule, the “selectivity for FGFR1 over other kinases” value ([15]; 17 kinases) was over 20 fold, the “selectivity for FGFR1 over other kinases” value ([15]; 349 kinases) was “greater than 200 fold” and the “effect on macrophage-induced RT112 cell migration” value [16] was “blocking most cell migration”. The inhibition at 0.01 µM ([17]; 10 nM) was -12%, the inhibition at 0.1 µM ([17]; 100 nM) was 0% and the inhibition at 1 µM ([17]; 1000 nM) was 4%. The inhibition at 0.01 µM ([18]; 10 nM) was -8%, the inhibition at 0.1 µM ([18]; 100 nM) was -42% and the inhibition at 1 µM ([18]; 1000 nM) was -44%.

Reference: publication PMC6704710, “Preclinical evaluation of 3D185, a novel potent inhibitor of FGFR1/2/3 and CSF-1R, in FGFR-dependent and macrophage-dominant cancer models” (Journal of Experimental & Clinical Cancer Research : CR, 2019)
